Experimental data: publication PMC9219090 (ACS Omega, 2022)

Assays:
MDA-MB 231 [1] = assay: MTT antiproliferative evaluation on MDA-MB 231 cells; format: cell-based; conditions: Homo sapiens, MDA-MB-231, 72 h, read-out: IC50 MDA-MB 231
MDA-MB 231 [2] = assay: Flow cytometric annexin V/PI analysis of apoptosis in MDA-MB 231; format: cell-based, human; conditions: MDA-MB 231, at 3 nM, 72 h, mean ± SEM
Caco-2 [3] = assay: Flow cytometric annexin V/PI analysis of apoptosis in Caco-2; format: cell-based, human; conditions: Caco-2, at 3 nM, 72 h, mean ± SEM
MMP-10 = MMP-10 (Homo sapiens, UniProt P09238); assay: MMP-10 Assay Kit; conditions: read-out: IC50 MMP-10
Sequence of MMP-10 (P09238 99-476): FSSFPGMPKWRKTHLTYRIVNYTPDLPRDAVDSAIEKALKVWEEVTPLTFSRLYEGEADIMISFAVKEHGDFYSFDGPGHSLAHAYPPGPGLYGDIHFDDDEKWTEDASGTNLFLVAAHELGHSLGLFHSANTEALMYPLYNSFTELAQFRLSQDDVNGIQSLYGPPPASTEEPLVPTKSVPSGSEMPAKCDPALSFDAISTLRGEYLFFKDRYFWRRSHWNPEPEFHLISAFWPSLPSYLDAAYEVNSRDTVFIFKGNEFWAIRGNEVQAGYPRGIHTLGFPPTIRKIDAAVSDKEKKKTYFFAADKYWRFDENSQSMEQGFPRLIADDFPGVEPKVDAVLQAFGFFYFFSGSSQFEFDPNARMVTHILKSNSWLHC

MMP-7 = target: T1, MMP-7 (Homo sapiens, UniProt P09237); assay: MMP-7 Inhibitor Screening Assay Kit; conditions: read-out: IC50 MMP-7
T1 sequence (P09237 95-267): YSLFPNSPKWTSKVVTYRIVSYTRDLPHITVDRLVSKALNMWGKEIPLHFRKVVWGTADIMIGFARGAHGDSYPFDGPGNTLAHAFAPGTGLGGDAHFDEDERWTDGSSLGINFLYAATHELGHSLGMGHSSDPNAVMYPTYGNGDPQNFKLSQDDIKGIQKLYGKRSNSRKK

MMP-13 = MMP-13 (Homo sapiens, UniProt P45452); assay: MMP-13 Inhibitor Screening Assay Kit; conditions: read-out: IC50 MMP-13
MMP-9 = MMP-9 (Homo sapiens, UniProt P14780); assay: MMP-9 Colorimetric Assay Kit for Drug Discovery; format: biochemical; conditions: read-out: IC50 MMP-9
Sequence of MMP-9 (P14780 94-707): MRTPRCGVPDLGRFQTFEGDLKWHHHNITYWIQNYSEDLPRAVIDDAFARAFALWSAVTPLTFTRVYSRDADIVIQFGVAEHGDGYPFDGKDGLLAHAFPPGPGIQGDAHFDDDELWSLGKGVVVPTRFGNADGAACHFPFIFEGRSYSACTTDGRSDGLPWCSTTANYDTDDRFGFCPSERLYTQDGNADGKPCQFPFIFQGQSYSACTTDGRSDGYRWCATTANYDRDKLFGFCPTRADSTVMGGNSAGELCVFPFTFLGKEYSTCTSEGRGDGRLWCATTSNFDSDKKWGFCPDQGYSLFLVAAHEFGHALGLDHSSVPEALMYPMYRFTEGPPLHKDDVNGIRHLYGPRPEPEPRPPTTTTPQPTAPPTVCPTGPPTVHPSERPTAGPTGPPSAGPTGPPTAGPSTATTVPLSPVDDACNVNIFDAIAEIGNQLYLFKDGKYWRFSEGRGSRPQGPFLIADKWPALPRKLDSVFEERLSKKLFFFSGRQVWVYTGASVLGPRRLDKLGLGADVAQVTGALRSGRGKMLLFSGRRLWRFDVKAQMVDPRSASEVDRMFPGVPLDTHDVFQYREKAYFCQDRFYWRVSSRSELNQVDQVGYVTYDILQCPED

MMP-2 = target: T2, MMP-2 (Homo sapiens, UniProt P08253); assay: MMP-2 Inhibitor Screening Assay Kit; format: biochemical; conditions: read-out: IC50 MMP-2
T2 sequence (P08253 110-660): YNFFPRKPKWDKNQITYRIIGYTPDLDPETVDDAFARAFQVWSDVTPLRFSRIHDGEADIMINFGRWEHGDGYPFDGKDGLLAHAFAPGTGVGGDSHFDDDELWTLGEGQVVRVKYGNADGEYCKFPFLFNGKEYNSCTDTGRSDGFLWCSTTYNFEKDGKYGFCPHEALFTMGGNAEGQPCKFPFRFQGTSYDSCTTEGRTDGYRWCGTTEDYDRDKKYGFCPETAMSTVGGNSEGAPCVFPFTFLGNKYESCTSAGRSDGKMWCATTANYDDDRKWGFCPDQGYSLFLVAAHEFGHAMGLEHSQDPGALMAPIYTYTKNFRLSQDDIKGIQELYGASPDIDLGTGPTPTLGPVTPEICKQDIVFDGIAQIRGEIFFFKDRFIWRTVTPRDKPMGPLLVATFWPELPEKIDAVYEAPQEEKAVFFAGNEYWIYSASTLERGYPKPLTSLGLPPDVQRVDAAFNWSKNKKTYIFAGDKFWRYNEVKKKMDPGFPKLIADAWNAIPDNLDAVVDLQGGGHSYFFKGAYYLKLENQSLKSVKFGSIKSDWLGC

Caco-2 [4] = assay: MTT antiproliferative evaluation on Caco-2 cells; format: cell-based; conditions: Homo sapiens, Caco-2, 72 h, read-out: IC50 Caco-2
tumor growth = conditions: mouse models; cited from earlier work

COc1cccc2c1C(=O)c1c(O)c3c(c(O)c1C2=O)C[C@@](O)(C(=O)CO)C[C@@H]3O[C@H]1C[C@H](N)[C@H](O)[C@H](C)O1 [DOX, doxorubicin]
IC50 (MDA-MB 231 [1]): 10.7 ± 0.3 nM
total % of the apoptotic cell population, MDA-MBA 231 (MDA-MB 231 [2]): 19.9 ± 1.6%
total % of the apoptotic cell population, MDA-MBA 231 (MDA-MB 231 [2]; listed as doxorubicin): < 32%
total % of the apoptotic cell population, Caco-2 (Caco-2 [3]): 31.7 ± 2.7%
total % of the apoptotic cell population, Caco-2 (Caco-2 [3]; listed as doxorubicin): < 32%

COc1ccc(S(=O)(=O)N(CC(=O)NO)CC(C)C)cc1 [NNGH, N-isobutyl-N-(4-methoxyphenylsulfonyl)glycyl hydroxamic acid]
IC50 (MMP-10): 101 nM
IC50 (MMP-7): 240 nM
IC50 (MMP-13): 360 nM
IC50 (MMP-9): 73 nM
IC50 (MMP-2): 77 nM

O=C(NNc1nc(O)nc(O)n1)c1ccc(Nc2nc(Nc3ccc(C(=O)NNc4nc(O)nc(O)n4)cc3)nc(Nc3ccc(C(=O)NNc4nc(O)nc(O)n4)cc3)n2)cc1 [compound 12, 4,4′,4′′-((1,3,5-Triazine-2,4,6-triyl)tris(azanediyl))tris(N′-(4,6-dihydroxy-1,3,5-triazin-2-yl)benzohydrazide)]
IC50 (MDA-MB 231 [1]): 70.9 ± 3.7 nM
IC50 (Caco-2 [4]): 52.8 ± 3.8 nM

O=C(NO)c1ccc(Nc2nc(Nc3ccc(C(=O)NO)cc3)nc(Nc3ccc(C(=O)NO)cc3)n2)cc1 [compound 13, 4,4′,4′′-((1,3,5-Triazine-2,4,6-triyl)tris(azanediyl))tris(N-hydroxybenzamide)]
IC50 (MDA-MB 231 [1]): 94.4 ± 10.6 nM
IC50 (Caco-2 [4]): 38.4 ± 1.6 nM

B1: andecaliximab (antibody, chains of the INN, looked up, V domains shown)
VH: QVQLQESGPGLVKPSETLSLTCTVSGFSLLSYGVHWVRQPPGKGLEWLGVIWTGGTTNYNSALMSRFTISKDDSKNTVYLKMNSLKTEDTAIYYCARYYYGMDYWGQGTLVTVSS
VL: DIQMTQSPSSLSASVGDRVTITCKASQDVRNTVAWYQQKPGKAPKLLIYSSSYRNTGVPDRFSGSGSGTDFTLTISSLQAEDVAVYYCQQHYITPYTFGGGTKVEIK
tumor growth and metastases incidence (tumor growth): reduced the tumor growth and metastases incidence
